For data set [1] the following is noted: in vivo; cited from earlier work.
The subject of the next data set is 5'-nucleotidase. The settings on record: Crotalus atrox, pH 7.3.

The values that follow come from patent EP0821692B1, “IMMUNOPOTENTIATING INOSINE MONOPHOSPHATE 5'-NUCLEOTIDASE RESISTANT DERIVATIVES AND USES THEREOF” (UNIVERSITY OF SOUTH FLORIDA, priority 1995, dated 1996).

isoprinosine: in data set [1], the half-life entry is “less than four hours”.

On to `Nc1ncnc2c1ncn2[C@@H]1O[C@H](COP(=O)(O)O)[C@@H](O)[C@H]1O` [Adenosine MP, adenosine-5'-monophosphate], for which the “Hydrolysis (%)” value in the data set on 5'-nucleotidase came out at 86.0%.
